# Test results published in ChEMBL document CHEMBL6134779, “Design of Proteolytic-Resistant Antifungal Peptides by Utilizing Minimum d-Amino Acid Ratios” (J Med Chem, 2024).
# The source made the active and inactive calls. The calls are words filed in the database; no cut-off is given here.
# How the values were obtained:
# Candida albicans [1] = assay: Antifungal activity against Candida albicans 56452 assessed as inhibition of fungal growth incubated for 48 hrs; assay type: functional
# Candida albicans [2] = assay: Antifungal activity against Candida albicans SP3876 assessed as inhibition of fungal growth incubated for 48 hrs; assay type: functional
# Candida albicans [3] = assay: Antifungal activity against Candida albicans 17546 assessed as inhibition of fungal growth incubated for 48 hrs; assay type: functional
# Candida albicans [4] = assay: Antifungal activity against Candida albicans SP3902 assessed as inhibition of fungal growth incubated for 48 hrs; assay type: functional
# Candida albicans [5] = assay: Resistance development in Candida albicans CGMCC 2.2086 assessed as fold increase in MIC after 20 passages by broth microdilution method relative to control; assay type: functional
# Candida albicans [6] = assay: Resistance development in Candida albicans CGMCC 2.2086 assessed as fold increase in MIC after 30 passages by broth microdilution method relative to control; assay type: functional
# Candida albicans [7] = assay: Antifungal activity against Candida albicans 14936 assessed as inhibition of fungal growth incubated for 48 hrs; assay type: functional
# Candida albicans [8] = assay: Antifungal activity against Candida albicans CGMCC 2.2086 assessed as inhibition of fungal growth incubated for 48 hrs; assay type: functional
# Candida tropicalis = assay: Antifungal activity against Candida tropicalis CGMCC 2.1975 assessed as inhibition of fungal growth incubated for 48 hrs; assay type: functional
# Candida albicans [9] = assay: Antifungal activity against Fluconazole-resistant Candida albicans 56214 assessed as inhibition of fungal growth incubated for 48 hrs; assay type: functional
# Candida albicans [10] = assay: Antifungal activity against Candida albicans SP3931 assessed as inhibition of fungal growth incubated for 48 hrs; assay type: functional
# Candida albicans [11] = assay: Antifungal activity against Fluconazole-resistant Candida albicans 58288 assessed as inhibition of fungal growth incubated for 48 hrs; assay type: functional
# Candida albicans [12] = assay: Antifungal activity against Candida albicans SP3903 assessed as inhibition of fungal growth incubated for 48 hrs; assay type: functional
# Candida parapsilosis = assay: Antifungal activity against Candida parapsilosis CGMCC 2.3989 assessed as inhibition of fungal growth incubated for 48 hrs; assay type: functional; settings: Lodderomyces parapsilosis
# Candida albicans [13] = assay: Induction of morphological changes in Candida albicans CGMCC 2.2086 assessed as appearance of cell pits at 1X MIC measured after 60 mins by SEM analysis; assay type: functional, organism-based
# Cell membrane [14] = assay: Disruption of Candida albicans CGMCC 2.2086 cell membrane at 1X MIC measured after 1 hr by SYTO9/propidium iodide staining based fluorescence microscopic analysis; assay type: subcellular
# Candida albicans [15] = assay: Antifungal activity against Candida albicans CGMCC 2.2086 assessed as inhibition of fungal growth incubated for 48 hrs in presence of ZnCl2; assay type: functional
# Candida albicans [16] = assay: Induction of Candida albicans CGMCC 2.2086 cell wall permeabilization by NPN probe based assay; assay type: functional, organism-based; settings: dose 1-128 µM
# Candida albicans [17] = assay: Antifungal activity against Candida albicans CGMCC 2.2086 assessed as inhibition of fungal growth incubated for 48 hrs in presence of NaCl; assay type: functional
# Candida albicans [18] = assay: Antifungal activity against Candida albicans CGMCC 2.2086 assessed as inhibition of fungal growth incubated for 48 hrs in presence of CaCl2; assay type: functional
# Candida albicans [19] = assay: Antifungal activity against Candida albicans CGMCC 2.2086 assessed as inhibition of fungal growth incubated for 48 hrs in presence of NH4Cl; assay type: functional
# [20] = Stability of the compound in ZnCl2 assessed as change in secondary structure by CD spectra analysis; assay type: physicochemical
# [21] = Stability of the compound in FeCl3 assessed as change in secondary structure by CD spectra analysis; assay type: physicochemical
# [22] = Stability of the compound in KCl assessed as change in secondary structure by CD spectra analysis; assay type: physicochemical
# Candida albicans [23] = assay: Antifungal activity against Candida albicans CGMCC 2.2086 assessed as inhibition of fungal growth incubated for 2 hrs in presence of protease K; assay type: functional, organism-based
# Candida albicans [24] = assay: Antifungal activity against Candida albicans CGMCC 2.2086 assessed as inhibition of fungal growth incubated for 2 to 4 hrs in presence of 100% serum; assay type: functional, organism-based; settings: time 2-4 hrs
# Candida albicans [25] = assay: Induction of Candida albicans CGMCC 2.2086 cell wall permeabilization at 128 uM by NPN probe based assay relative to control; assay type: functional
# [26] = Stability of the compound in MgCl2 assessed as change in secondary structure by CD spectra analysis; assay type: physicochemical
# [27] = Stability of the compound in NaCl assessed as change in secondary structure by CD spectra analysis; assay type: physicochemical
# [28] = Stability of the compound in CaCl2 assessed as change in secondary structure by CD spectra analysis; assay type: physicochemical
# [29] = Hemolytic activity in human red blood cells assessed as hemolysis incubated for 1 hr; assay type: toxicity, cell-based, Erythrocyte
# Candida albicans [30] = assay: Antifungal activity against Candida albicans CGMCC 2.2086 assessed as inhibition of fungal growth incubated for 48 hrs in presence of MgCl2; assay type: functional
# Candida albicans [31] = assay: Antibiofilm activity against Candida albicans CGMCC 2.2086 assessed as inhibition of biofilm formation at antifungal MIC measured after 48 hrs by crystal violet staining based assay; assay type: functional
# Candida albicans [32] = assay: Antifungal activity against Candida albicans CGMCC 2.2086 assessed as inhibition of fungal growth incubated for 2 hrs in presence of chymotrypsin; assay type: functional, organism-based
# [33] = Stability of the compound in NH4Cl assessed as change in secondary structure by CD spectra analysis; assay type: physicochemical
# Candida albicans [34] = assay: Antifungal activity against Candida albicans CGMCC 2.2086 assessed as inhibition of fungal growth incubated for 48 hrs in presence of FeCl3; assay type: functional
# Cell membrane [35] = assay: Induction of cytoplasmic membrane depolarization in Candida albicans CGMCC 2.2086 at 0.5 to 2X MIC measured up to 3600 secs by DISC3-5 dye based fluorescence assay; assay type: subcellular; settings: time <= 3600.0 sec
# Candida albicans [36] = assay: Induction of ROS generation in Candida albicans CGMCC 2.2086 measured after 60 mins by […] dye based fluorescence assay; assay type: functional, organism-based; settings: dose 0.5-128 µM
# Candida albicans [37] = assay: Induction of morphological changes in Candida albicans CGMCC 2.2086 at 1X MIC measured after 60 mins by TEM analysis; assay type: functional, organism-based
# [38] = Hemolytic activity in human red blood cells assessed as hemolysis rate at 512 uM incubated for 1 hr relative to control; assay type: toxicity, cell-based, Erythrocyte; settings: read-out: Activity
# Candida albicans [39] = assay: Antifungal activity against Candida albicans CGMCC 2.2086 assessed as inhibition of fungal growth incubated for 2 hrs in presence of trypsin; assay type: functional, organism-based
# Candida albicans [40] = assay: Antifungal activity against Candida albicans CGMCC 2.2086 assessed as inhibition of fungal growth incubated for 48 hrs in presence of KCl; assay type: functional
# HEK293 = assay: Cytotoxicity against HEK293 cells assessed as cell death at 64 uM measured after 8 hrs by calcein-AM and propidium iodide Live/Dead dye staining assay; assay type: toxicity, cell-based; settings: human, hek293, 8 h
compound,measurement,setting,value
OC(Cn1cncn1)(Cn1cncn1)c1ccc(F)cc1F [FLUCONAZOLE],MIC95,Candida albicans [1],2 µM
same,MIC95,Candida albicans [2],8 µM
same,MIC95,Candida albicans [3],1 µM
same,MIC95,Candida albicans [4],4 µM
same,fold change (FC),Candida albicans [5],64
same,fold change (FC),Candida albicans [6],128
same,MIC95,Candida albicans [7],2 µM
same,MIC95,Candida albicans [8],4 µM
same,MIC95,Candida tropicalis,1 µM
same,MIC95,Candida albicans [9],> 64 µM
same,MIC95,Candida albicans [10],2 µM
same,MIC95,Candida albicans [11],> 64 µM
same,MIC95,Candida albicans [12],2 µM
same,MIC95,Candida parapsilosis,4 µM
CC(C)[C@H](N)C(=O)N[C@H](C(=O)N[C@H](CCCNC(=N)N)C(=O)N[C@@H](CCCNC(=N)N)C(=O)N[C@@H](Cc1c[nH]cn1)C(=O)N[C@H](C(=O)N[C@H](C(=O)N[C@H](C(=O)N[C@H](C(=O)N[C@H](CCCNC(=N)N)C(=O)N[C@@H](CCCNC(=N)N)C(=O)N[C@@H](Cc1c[nH]cn1)C(=O)N[C@H](C(=O)N[C@H](C(=O)N[C@H](C(=O)N[C@H](C(=O)N[C@H](CCCNC(=N)N)C(=O)N[C@@H](CCCNC(=N)N)C(=O)N[C@@H](Cc1c[nH]cn1)C(=O)N[C@H](C(=O)N[C@H](C(N)=O)C(C)C)C(C)C)C(C)C)C(C)C)C(C)C)C(C)C)C(C)C)C(C)C)C(C)C)C(C)C)C(C)C,MIC95,Candida albicans [1],4 µM
same,Activity,Candida albicans [13],Active; Only Limited Number Of Pits Appeared
same,Activity,Cell membrane [14],Active
same,MIC95,Candida albicans [15],8 µM
same,Activity,Candida albicans [16],Dose-dependent-effect
same,MIC95,Candida albicans [17],64 µM
same,MIC95,Candida albicans [2],8 µM
same,MIC95,Candida albicans [18],32 µM
same,MIC95,Candida albicans [19],4 µM
same,Stability,[20],Stable
same,Stability,[21],Stable
same,MIC95,Candida albicans [3],4 µM
same,MIC95,Candida albicans [4],8 µM
same,Stability,[22],Stable
same,Activity,Candida albicans [23],Active
same,growth inhibition (GI),Candida albicans [24],Active; No Alterations In The Antimicrobial Activity Was Observed In Presence Of Serum
same,Activity,Candida albicans [25],<=100%
same,Stability,[26],Stable
same,Stability,[27],Unstable
same,Stability,[28],Stable
same,HC50 at 1 h,[29],> 512 µM
same,MIC95,Candida albicans [30],8 µM
same,inhibition (INH),Candida albicans [31],90%
same,Activity,Candida albicans [32],Active
same,Stability,[33],Stable
same,MIC95,Candida albicans [7],8 µM
same,MIC95,Candida albicans [8],8 µM
same,MIC95,Candida albicans [34],32 µM
same,MIC95,Candida tropicalis,4 µM
same,Activity,Cell membrane [35],Active
same,Activity,Candida albicans [36],Dose-dependent-effect
same,Activity,Candida albicans [37],inactive
same,MIC95,Candida albicans [9],8 µM
same,MIC95,Candida albicans [10],8 µM
same,"hemolysis at 1 h, 512 µM",[38],8.58%
same,Activity,Candida albicans [39],Active
same,MIC95,Candida albicans [40],32 µM
same,Activity,HEK293,Toxic
same,MIC95,Candida albicans [11],8 µM
same,MIC95,Candida albicans [12],4 µM
same,MIC95,Candida parapsilosis,4 µM
